The results in this text go back to patent US20120288712A1, “ESCITALOPRAM AND SOLID PHARMACEUTICAL COMPOSITION COMPRISING THE SAME” (ratiopharm GmbH, priority 2006, published 2012).

Each structure is given as a SMILES string. Counter-ions that a name gives are not always drawn.

The data set is described as follows: Particle size distribution by laser diffraction (Sympatec Helos). It is filed as physicochemical. To be noted: laser diffraction at 1 bar dispersive pressure. From the text:
As used herein, “particle size distribution” means the cumulative volume size distribution of equivalent spherical diameters as determined by laser diffraction at 1 bar dispersive pressure in a Sympatec Helos equipment. “Median particle size”, correspondingly, means the median of said particle size distribution. When the term “Escitalopram” is used it covers Escitalopram as well as a pharmaceutically acceptable salt and/or a pharmaceutically acceptable solvate thereof.

With `CN(C)CCC[C@@]1(c2ccc(F)cc2)OCc2cc(C#N)ccc21` [Escitalopram oxalate, (S)-1-[3-(dimethylamino)propyl]-1-(4-fluorophenyl)-1,3-dihydro-5-isobenzofurancarbonitrile], the median particle size result was “about 6.65 μm”; the “ratio between the median particle size and the particle size at the 95% quantile” value is reported as “about 0.61”.
